Data published in patent publication US8466199B2, “Allyloxy and alkyloxy benzoic acid delivery agents” (Emisphere Technologies, Inc., priority 2007, dated 2013).

Experiments:
[1] = test system: fasted male Sprague-Dawley rats; test: Oral delivery of insulin to male Sprague-Dawley rats (blood glucose by glucometer, compared to vehicle control); format: in vivo, rat; settings: oral gavage, 200 mg/kg delivery agent + 0.5 mg/kg insulin, C minimum over 0-60 min, average of experiments
Protocol: Insulin stock solution (15 mg/ml) (Human zinc insulin, Calbiochem-Novabiochem Corp., La Jolla, Calif.) was prepared with deionized water. Oral dosing compositions containing 200 mg/kg of a delivery agent compound of the present invention and 0.5 mg/kg of insulin in an aqueous solution were prepared for the compounds prepared in Examples 2-24.
(§1) One ml of the dosing solution was administered to fasted male Sprague-Dawley rats by oral gavage with an average weight of about 225-250 grams Blood glucose levels were then determined by glucometer (One Touch Ultra®, LifeScan, Inc.) and compared to vehicle control (1 ml/kg of water). Samples were collected prior to dosing (time 0) and at 15, 30, 45 and 60 minutes after dosing. The % glucose reduction is shown below in Table 1. The values correspond to the C minimum, and are an average % reduction with respect to the number of times the experiment was run for each delivery agent.
The solutions were administered to fasted male Sprague-Dawley rats and the % glucose reduction was determined in the same manner as described above.
as §1, with “Insulin stock solution (15 mg/ml) (Human zinc insulin, Calbiochem-Novabiochem Corp., La Jolla, Calif.) was prepared with deionized water. Oral dosing compositions containing 200 mg/kg of a delivery agent compound of the present invention and 0.5 mg/kg of insulin in an aqueous solution were prepared for the compounds prepared in Examples 27-34. One ml” for “One ml”, “about 225-250 grams. Blood glucose” for “about 225-250 grams Blood glucose”, “in Table 3. The values” for “in Table 1. The values”
as §1, with “Insulin stock solution (15 mg/ml) (Human zinc insulin, Calbiochem-Novabiochem Corp., La Jolla, Calif.) was prepared with deionized water. Oral dosing compositions containing 200 mg/kg of a delivery agent compound of the present invention and 0.5 mg/kg of insulin in an aqueous solution were prepared for the compounds prepared in Examples 37-49. One ml” for “One ml”, “about 225-250 grams. Blood glucose” for “about 225-250 grams Blood glucose”, “in Table 5. The values” for “in Table 1. The values”

[2] = test system: fasted male Sprague-Dawley rats; test: as above; format: in vivo, rat
[3] = Table 2, Insulin Dose 0 mg/kg, Carrier Dose 200 mg/kg
[4] = Table 2, Insulin Dose 0.25 mg/kg, Carrier Dose 200 mg/kg

C=CCOc1ccccc1C(=O)O [Compound 1, 2-Allyloxy-benzoic acid]
Glucose (Absolute change from Control) ([1]; Table 1, aqueous solution): −35.1% | Glucose (Absolute change from Control) [2, 3]: −12.5% | Glucose (Absolute change from Control) ([2]; Table 2, Insulin Dose 0.25 mg/kg, Carrier Dose 100 mg/kg): −17.9% | Glucose (Absolute change from Control) [2, 4]: 3.0%

C=CCOc1ccc(C(=O)O)cc1 [Compound 2, 4-Allyloxy-benzoic acid]
Glucose (Absolute change from Control) ([1]; Table 1, aqueous solution): −42.4%

C=CCCOc1ccccc1C(=O)O [Compound 3, 2-But-3-enyloxy-benzoic acid]
Glucose (Absolute change from Control) ([1]; Table 1, aqueous solution): −25.5%

C=CCCOc1ccc(C(=O)O)cc1 [Compound 4, 4-But-3-enyloxy-benzoic acid]
Glucose (Absolute change from Control) ([1]; Table 1, aqueous solution): −41.6% | Glucose (Absolute change from Control) [2, 3]: 8.8% | Glucose (Absolute change from Control) [2, 4]: −11.4%

C=CCCOc1cccc(C(=O)O)c1 [Compound 5, 3-But-3-enyloxy-benzoic acid]
Glucose (Absolute change from Control) ([1]; Table 1, aqueous solution): −40.8% | Glucose (Absolute change from Control) [2, 3]: −6.3% | Glucose (Absolute change from Control) [2, 4]: −5.4%

C=CCOc1cccc(C(=O)O)c1 [Compound 6, 3-Allyloxy-benzoic acid]
Glucose (Absolute change from Control) ([1]; Table 1, aqueous solution): −42.8% | Glucose (Absolute change from Control) [2, 3]: −10.7% | Glucose (Absolute change from Control) [2, 4]: −18.2%

CC(C)=CCOc1ccccc1C(=O)O [Compound 7, 2-(3-Methyl-but-2-enyloxy)-benzoic acid]
Glucose (Absolute change from Control) ([1]; Table 1, aqueous solution): −38.8%

CC(C)=CCOc1cccc(C(=O)O)c1 [Compound 8, 3-(3-Methyl-but-2-enyloxy)-benzoic acid]
Glucose (Absolute change from Control) ([1]; Table 1, aqueous solution): −31.6%

CC(C)=CCOc1ccc(C(=O)O)cc1 [Compound 9, 4-(3-Methyl-but-2-enyloxy)-benzoic acid]
Glucose (Absolute change from Control) ([1]; Table 1, aqueous solution): −27.8%

C=CCOc1ccc(OC)cc1C(=O)O [Compound 10, 2-Allyloxy-5-methoxy-benzoic acid]
Glucose (Absolute change from Control) ([1]; Table 1, aqueous solution): −27.2%

C=CCOc1cc(OC)ccc1C(=O)O [Compound 11, 2-Allyloxy-4-methoxy-benzoic acid]
Glucose (Absolute change from Control) ([1]; Table 1, aqueous solution): −24.0%

C=CCOc1c(OC)cccc1C(=O)O [Compound 12, 2-Allyloxy-3-methoxy-benzoic acid]
Glucose (Absolute change from Control) ([1]; Table 1, aqueous solution): −13.5%

C=CCOc1ccc(C)cc1C(=O)O [Compound 13, 2-Allyloxy-5-methyl-benzoic acid]
Glucose (Absolute change from Control) ([1]; Table 1, aqueous solution): −30.7%

C=CCOc1cccc(C)c1C(=O)O [Compound 14, 2-Allyloxy-6-methyl-benzoic acid]
Glucose (Absolute change from Control) ([1]; Table 1, aqueous solution): −14.4%

C=C(C)COc1ccccc1C(=O)O [Compound 15, 2-(2-Methyl-allyloxy)-benzoic acid]
Glucose (Absolute change from Control) ([1]; Table 1, aqueous solution): −37.4%

C=CCOc1cc(OCCO)ccc1C(=O)O [Compound 16, 2-Allyloxy-4-(2-hydroxy-ethoxy)-benzoic acid]
Glucose (Absolute change from Control) ([1]; Table 1, aqueous solution): −4.6%

C=CCOc1ccc(C(C)=O)cc1C(=O)O [Compound 17, 5-Acetyl-2-allyloxy-benzoic acid]
Glucose (Absolute change from Control) ([1]; Table 1, aqueous solution): 0.6%

C=CCOc1ccc(Br)cc1C(=O)O [Compound 18, 2-Allyloxy-5-bromo-benzoic acid]
Glucose (Absolute change from Control) ([1]; Table 1, aqueous solution): −5.0%

C=CCOc1ccc(Cl)cc1C(=O)O [Compound 19, 2-Allyloxy-5-chloro-benzoic acid]
Glucose (Absolute change from Control) ([1]; Table 1, aqueous solution): −21.5%

C=C(C)COc1ccc(C(=O)O)cc1 [Compound 20, 4-(2-Methyl-allyloxy)-benzoic acid]
Glucose (Absolute change from Control) ([1]; Table 1, aqueous solution): −51.1%

C=C(C)COc1cccc(C(=O)O)c1 [Compound 21, 3-(2-Methyl-allyloxy)-benzoic acid]
Glucose (Absolute change from Control) ([1]; Table 1, aqueous solution): −27.4%

C=CCOc1cc(C(=O)O)ccc1OC [Compound 22, 3-Allyloxy-4-methoxy-benzoic acid]
Glucose (Absolute change from Control) ([1]; Table 1, aqueous solution): −10.2%

C=C(C)COc1cc(C(=O)O)ccc1OC [Compound 23, 4-Methoxy-3-(2-methyl-allyloxy)-benzoic acid]
Glucose (Absolute change from Control) ([1]; Table 1, aqueous solution): −8.4%

CCCOc1cccc(C(=O)O)c1 [Compound 24, 3-Propoxy-benzoic acid]
Glucose (Absolute change from Control) ([1]; Table 3): −15.2%

CCCOc1ccc(C(=O)O)cc1 [Compound 25, 4-Propoxy-benzoic acid]
Glucose (Absolute change from Control) ([1]; Table 3): −25.5%

CCCOc1ccccc1C(=O)O [Compound 26, 2-Propoxy-benzoic acid]
Glucose (Absolute change from Control) ([1]; Table 3): −14.2%

CCCCOc1cccc(C(=O)O)c1 [Compound 27, 3-Butoxy-benzoic acid]
Glucose (Absolute change from Control) ([1]; Table 3): −23.9%

CCCCOc1ccc(C(=O)O)cc1 [Compound 28, 4-Butoxy-benzoic acid]
Glucose (Absolute change from Control) ([1]; Table 3): −22.3%

CCCCOc1ccccc1C(=O)O [Compound 29, 2-Butoxy-benzoic acid]
Glucose (Absolute change from Control) ([1]; Table 3): −34.9%

CC(C)COc1ccc(C(=O)O)cc1 [Compound 30, 4-Isobutoxy-benzoic acid]
Glucose (Absolute change from Control) ([1]; Table 3): −29.8%

CC(C)COc1cccc(C(=O)O)c1 [Compound 31, 3-Isobutoxy-benzoic acid]
Glucose (Absolute change from Control) ([1]; Table 3): −9.5%

C=CCOCc1ccc(C(=O)O)cc1 [Compound 32, 4-Allyloxymethyl-benzoic acid]
Glucose (Absolute change from Control) ([1]; Table 5): −19.5%

C=CCCOCc1ccc(C(=O)O)cc1 [Compound 33, 4-But-3-enyloxymethyl-benzoic acid]
Glucose (Absolute change from Control) ([1]; Table 5): −38.5%

C=CC(C)OCc1ccc(C(=O)O)cc1 (centres unmarked) [Compound 34, 4-(1-Methyl-allyloxymethyl)-benzoic acid]
Glucose (Absolute change from Control) ([1]; Table 5): −16.6%

C=C(C)COCc1ccc(C(=O)O)cc1 [Compound 35, 4-(2-Methyl-allyloxymethyl)-benzoic acid]
Glucose (Absolute change from Control) ([1]; Table 5): −16.0%

C=CCCOCc1cccc(C(=O)O)c1 [Compound 36, 3-But-3-enyloxymethyl-benzoic acid]
Glucose (Absolute change from Control) ([1]; Table 5): −20.7%

C=C(C)COCc1cccc(C(=O)O)c1 [Compound 37, 3-(2-Methyl-allyloxymethyl)-benzoic acid]
Glucose (Absolute change from Control) ([1]; Table 5): −8.4%

C=CCOCc1cccc(C(=O)O)c1 [Compound 38, 3-Allyloxymethyl-benzoic acid]
Glucose (Absolute change from Control) ([1]; Table 5): −13.1%

CCOCc1ccc(C(=O)O)cc1 [Compound 39, 4-Ethoxymethyl-benzoic acid]
Glucose (Absolute change from Control) ([1]; Table 5): −1.9%

CC(C)OCc1ccc(C(=O)O)cc1 [Compound 40, 4-Isopropoxymethyl-benzoic acid]
Glucose (Absolute change from Control) ([1]; Table 5): −31.9%

CCCOCc1ccc(C(=O)O)cc1 [Compound 41, 4-Propoxymethyl-benzoic acid]
Glucose (Absolute change from Control) ([1]; Table 5): −19.2%

CCOCc1cccc(C(=O)O)c1 [Compound 42, 3-Ethoxymethyl-benzoic acid]
Glucose (Absolute change from Control) ([1]; Table 5): −11.3%

CC(C)OCc1cccc(C(=O)O)c1 [Compound 43, 3-Isopropoxymethyl-benzoic acid]
Glucose (Absolute change from Control) ([1]; Table 5): −29.3%

CCCOCc1cccc(C(=O)O)c1 [Compound 44, 3-Propoxymethyl-benzoic acid]
Glucose (Absolute change from Control) ([1]; Table 5): −20.8%
